Source: US11311598B2, “Peptides and analogs for use in the treatment of oral mucositis” (Soligenix, Inc., priority 2013, dated 2022)
Where no end group is shown, it is not given here.

What was measured:
[1] = mice
mice = assay: mouse IV toxicity studies (pilot single dose, GLP 14-day, acute); format: in vivo
Experimental: (§1) Two pilot and 2 definitive repeat-dose toxicity studies were conducted with RIVPA (SEQ ID NO. 5) in mice and cynomolgus monkeys using the intravenous (IV; slow bolus) route of administration. All studies were conducted by LAB Research Inc., Canada.
(§2) These resolved within a few minutes without detectable residual effects.
The safety of multiple daily injections of RIVPA (SEQ ID NO. 5) has also been evaluated in GLP studies in mice and cynomolgus monkeys. In mouse, doses of 20, 60, or 90 mg/kg/day were given IV for 14 days.
(§3) The observed respiratory depression occurred at different dose levels in different species, and was not predicted by allometric scaling. In particular, the mouse appeared to be the most sensitive species with acute toxicity occurring rarely at 60 mg/kg (HED: ^˜5 mg/kg) and commonly at 90 mg/kg (HED: ^˜7 mg/kg). In contrast in NHP (cynomologus monkey), acute toxicity occurred occasionally at 160 mg/kg (HED: ^˜50 mg/kg) and consistently at 240 mg/kg (HED: ^˜78 mg/kg).

[2] = Phase 1 study, human pharmacokinetics; format: in vivo
Experimental: In the single-dose phase of a healthy volunteer Phase 1 trial, RIVPA (SEQ ID NO. 5) was rapidly eliminated, with plasma levels decreasing to less than 10 percent of the maximum concentration (Cmax) within 9 min after the start of the 4-minute IV infusion. Following the rapid decline, a slower elimination phase was observed. […] Maximum plasma concentrations and total exposure levels were dose-proportional and clearance of RIVPA (SEQ ID NO. 5) from the circulation was rapid, consistent with the mouse and NHP experience.
In light of the high clearance and short elimination half-life, accumulation following daily injection was not expected to occur.

MRSA (strain USA300) = assay: MRSA bacteremia model in nu/nu mice lacking T-cells; format: in vivo, mouse; conditions: female nu/nu mice, single dose 50 mg/kg IV 4 h prior to infection; 14 days
Experimental: RIVPA (SEQ ID NO. 5) is also effective when administered by itself. Multiple studies with IV administered RIVPA (SEQ ID NO. 5) were conducted in a MRSA bacteremia model. […] In the first study, MRSA (USA300, 7.3 log 10 cfu) was administered via IV injection into the tail vein of female Balb/c mice at time 0. Four hours prior to infection, a single dose of saline or RIVPA (SEQ ID NO. 5) at the indicated dose levels was injected IV into the tail vein. Sub-optimal antibiotic treatment (linezolid, 6.25 mg/kg) was administered once orally immediately after infection. Survival was monitored for 21 days after the infection. In the second study, RIVPA (SEQ ID NO. 5) (IV) or saline (IV) was administered once 4 h prior to infection with MRSA (strain USA300, 7.0 log10 cfu) via the tail vein into female nu/nu mice. Statistically significant differences (i.e., p≤05) in survival were found with the 50 mg/kg dose level as assessed using Kaplan Meier analysis of each treatment group relative to the saline control.

CD-1 mice = assay: recovery of circulating blood cells after induction of leukopenia; format: in vivo, mouse; conditions: Cp-induced leukopenia, 20 or 50 mg/kg IV on Days 5, 7, 9 and 11
Experimental: Leukopenia was induced with 2 IP injections of Cp (150 mg/kg on Day 1 and 100 mg/kg on Day 4), resulting in well-established leukopenia by Day 4 that persisted until approximately Day 10. Saline or RIVPA (SEQ ID NO. 5) (20 or 50 mg/kg) was administered IV on Days 5, 7, 9 and 11. Six animals per group were sacrificed on each of Days 6, 8, 10, 12 and 14 and evaluated for complete blood count and differential. Neither the levels nor dynamics of the total leukocyte and differential white blood cell counts were altered during the course of recovery when compared to the vehicle control group (FIG. 15).

cynomolgus monkeys = assay: cynomolgus monkey IV toxicity studies (pilot, GLP 14-day); format: in vivo; conditions: for occurrence of acute toxicity (respiratory depression): cynomolgus monkey
Experimental: as §1, §2
RIVPA (SEQ ID NO. 5) at 20, 80, 160 mg/kg/day was given IV to cynomolgus monkeys for 14 days. […] In all cases, these clinical signs resolved within a few minutes. […] A dose level of 80 mg/kg/day was considered to be the No-Observed-Adverse-Effect-Level (NOAEL) for this study.
Overall, the NOAEL is considered to be 80 mg/kg/day for cynomolgus monkeys since transient clinical signs were limited to a single study and occurred in only 2 instances of the 98 administrations of the drug at this dose level.
as §3

[3] = system: S. aureus (Catalog No. 25923, ATCC); assay: S. aureus acute peritoneal infection model, local IP treatment; format: in vivo, mouse; conditions: female CD-1 mice, 9.5 mg/kg IP 4 h after infection; 24 h after infection
Experimental: Intraperitoneal (IP) injection of S. aureus (Catalog No. 25923, ATCC, 6×10^7 cfu) with 5% mucin was administered IP to female CD-1 mice (N=8/group) and RIVPA (SEQ ID NO. 5) (9.5 mg/kg) was injected IP 4 h later. Mice were sacrificed 24 h after infection and peritoneal lavage fluid was assessed for bacterial counts. The results of this study are shown in FIG. 11 (each data point represents the result from an individual mouse—dead mice were given the highest bacterial count of any mouse obtained in the study and are represented as open symbols in the graph).

metabolism and excretion = conditions: in vivo
[4] = system: CNS receptors and ion channels; assay: battery of CNS receptors and ion channels in vitro; format: binding
Experimental: No effects of RIVPA (SEQ ID NO. 5) have been observed on the central nervous system (CNS) in any study at any dose level and little or no radiolabelled RIVPA (SEQ ID NO. 5) was found in the mouse CNS at dose levels of either 20 or 90 mg/kg.

RIVPA-NH2 [RIVPA (SEQ ID NO. 5), RIVPA]
PK clearance from the circulation [1]: within minutes | immune-related organ weights, histopathology, hematology and clinical chemistry (mice; mouse 14-day toxicity study): no changes were observed | adverse effects (mice; mouse, 20 mg/kg for 14 days): No adverse effects were observed | mortality or clinical signs (mice; mouse, 20 mg/kg/day IV for 14 days): No test article-related mortality or clinical signs | HED of acutely toxic dose (mice; mouse, 60 mg/kg): ~5 mg/kg | occurrence of acute toxicity (respiratory depression) (mice; mouse, 60 mg/kg): rarely | mortality (mice; mouse, 60 mg/kg/day IV for 14 days): Lethality was also observed in 1 animal | HED of acutely toxic dose (mice; mouse, 90 mg/kg): ~7 mg/kg | occurrence of acute toxicity (respiratory depression) (mice; mouse, 90 mg/kg): commonly | mortality (mice; mouse, 90 mg/kg/day IV for 14 days): Deaths were observed | organ toxicity, biochemistry, hematology (mice; mouse, survivors of all groups, 14 days): no evidence of toxicity in any organ or abnormal biochemistry or hematology | pre-dose concentrations ([2]; daily for 7 days, Days 5, 6, 7 and Day 8 (24 h after start of infusion on Day 7), all subjects): below the lower limit of quantitation (LLOQ) | clearance from the circulation ([2]; human subjects, IV administration): within minutes | Tmax ([2]; human, plasma, intravenous, after the start of infusion, dose range 0.15 mg/kg to 8 mg/kg, read-out: mean time of maximum concentration (Tmax)): 4 to 4.8 min | maximum plasma concentrations and total exposure levels versus dose ([2]; single-dose phase): dose-proportional | plasma levels relative to the maximum concentration (Cmax) ([2]; within 9 min after the start of the 4-minute IV infusion, single-dose phase): less than 10% | survival over the saline control (MRSA (strain USA300)): statistically significant enhanced survival | recovery of circulating blood cell populations after induction of leukopenia (CD-1 mice): did not alter | HED of acutely toxic dose (cynomolgus monkeys; NHP 160 mg/kg): ~50 mg/kg | HED of acutely toxic dose (cynomolgus monkeys; NHP 240 mg/kg): ~78 mg/kg | immune-related organ weights, histopathology, hematology and clinical chemistry (cynomolgus monkeys; NHP 14-day toxicity study): no changes were observed | clinical signs (cynomolgus monkeys; NHP pilot studies, 90 (1 animal), 180 (both animals) and 220 (1 animal) mg/kg, during and shortly after dosing): mild clinical signs | T-cell, B-cell or NK-cell counts (cynomolgus monkeys; NHP, after 14 days of intravenous dosing): no effect | occurrence of acute toxicity (respiratory depression) (cynomolgus monkeys; 160 mg/kg): occasionally | occurrence of acute toxicity (respiratory depression) (cynomolgus monkeys; 240 mg/kg): consistently | clinical signs (cynomolgus monkeys; cynomolgus monkeys, 160 mg/kg/day IV for 14 days): Transient decreased activity and partially closed eyes | toxicity (cynomolgus monkeys; cynomolgus monkeys, 20 and 80 mg/kg/day IV for 14 days): did not result in any evidence of toxicity | reduction of bacterial load in peritoneal lavage fluid [3]: over 7 logs | primary metabolism (metabolism and excretion): proteases throughout body tissues | role of urine, feces and bile excretion in clearance (metabolism and excretion): very minor role | interaction with CNS receptors and ion channels [4]: No interaction was detected
